Test results reported in PubChem BioAssay AID1259334 (Broad Institute, 2017).
The source made the active and inactive calls. No stated cut-off is given here; in the data, active means AC50 below about 11 µM.

System: B cell line, TNFa signaling counterscreen reporter
Test: TNFa pathway inhibition counter-screen, B-lineage cells – dose response (AID 1259334);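 further: cells stimulated with TNFa after compound preincubation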

SMILES | AC50
C[C@@H]1CN([C@H](C)CO)C(=O)c2c(c3ccccc3n2C)-c2ccccc2CO[C@H]1CN(C)Cc1cccc(C(F)(F)F)c1 | > 20 µM (inactive)
O=C(C1CC1)N1C[C@@H]2N[C@H](C1)C2c1ccc(-c2cccc(F)c2)cc1 (some centres not stated) | 5.96 µM
C[C@H]1O[C@@H](O[C@H]2[C@@H](O)C[C@H](O[C@H]3[C@@H](O)C[C@H](O[C@H]4CC[C@]5(C)C6C[C@@H](O)[C@]7(C)[C@@H](C8=CC(=O)OC8)CC[C@]7(O)C6CC[C@@H]5C4)O[C@@H]3C)O[C@@H]2C)C[C@H](O)[C@@H]1O (some centres not stated) | 0.697 µM
Cc1ccccc1NC(=O)c1nc(S(C)(=O)=O)ncc1Cl | 1.96 µM
C=C1C(=O)OC2CC1C(O)CC(C)=CCCC(C)=CC(O)CC2C (configuration not stated) | 2.27 µM
Cc1ccc2nc(C(F)(F)F)c(C#N)c(N)c2c1 | 7.61 µM
O=C(Nc1ccccc1)N1CC(=O)N2[C@H](CO)[C@@H](c3ccc(C#CC4CCCCC4)cc3)[C@H]2C1 | 11.5 µM
CCCNC(=O)c1cc2c(c(-c3cccc(-c4cc5ccccc5o4)c3)n1)[C@H](CCO)N(C(=O)NC(C)C)C2 | > 20 µM (inactive)
CC(=O)Nc1ccc(Sc2ccc([N+](=O)[O-])o2)cc1 | 1.64 µM
CC(C)[C@H](N)C(=O)N[C@H]1CCC2C3CC=C4C[C@@H](O)CC[C@]4(C)C3CC[C@@]21C (some centres not stated) | 1.96 µM
c1ccc(-c2nnc(-c3ccccn3)nn2)nc1 | 11.4 µM
CC(C)=CCc1c2c(c3occ(-c4ccc(O)c(O)c4)c(=O)c3c1O)C=CC(C)(C)O2 | 8.15 µM
CC(=O)OC1CC2(O)C3CCC4CC(O)CCC4(C)C3CCC2(C)C1C1=CC(=O)OC1 (configuration not stated) | 0.839 µM
COC(=O)C1=C(C(=O)OC)C2OC1c1cc3ccccc3cc12 | 0.519 µM
O=C1C(O)CC2c3ccccc3CC3(CCCC3)N12 (configuration not stated) | > 20 µM (inactive)
c1ccn2cc(-c3ccc4c(c3)OCCO4)nc2c1 | 9.69 µM
C[C@H](CO)N1C[C@H](C)[C@H](CN(C)S(=O)(=O)c2ccc(Cl)cc2)Oc2c(NC(=O)Nc3ccc(F)cc3)cccc2C1=O | 4.98 µM
Cc1cc(C)cc(N2C(=O)CC(Sc3nnnn3-c3ccccc3)C2=O)c1 (configuration not stated) | 0.728 µM
CSc1ccc2c(c1)N(CCC1CCCCN1C)c1ccccc1S2 (configuration not stated) | 6.07 µM
N#C[C@@H]1[C@H](c2ccc(C#Cc3ccccc3F)cc2)[C@@H](CO)N1C(=O)C1CC1 | 3.39 µM
O=C(C1CCCC1)N1CC(=O)N2[C@@H](CO)[C@@H](c3ccc(C#CCc4ccccc4)cc3)[C@@H]2C1 | 1.7 µM

SMILES | AC50
N#Cc1cccc(-c2ccc([C@@H]3[C@@H]4CN(S(=O)(=O)c5ccc(-c6ccccc6)cc5)C[C@H]3N4)cc2)c1 | 11.4 µM
COc1ccc(CN(CCC(c2ccc(F)cc2)C2CCOC(C)(C)C2)C(=O)c2ccco2)cc1 (configuration not stated) | 11.3 µM
CC(OC(=O)c1cc(Br)ccc1O)C(=O)Nc1ccc(S(=O)(=O)N2CCCC2)cc1 (configuration not stated) | 7.82 µM
CC1CC(C)CC(C)C(O)C(C#N)=CC=CCC(C2CCCC2C(=O)O)OC(=O)CC(O)C(C)C1 (configuration not stated) | < 0.0005 µM
O=C(COc1cccnc1[N+](=O)[O-])c1ccc(Cl)s1 | 4.71 µM
O=c1cc(-c2ccc(O)cc2)oc2ccc3ccccc3c12 | 1.67 µM
CCC(=O)O[C@]1(C(=O)CCl)[C@@H](C)C[C@H]2[C@@H]3CCC4=CC(=O)C=C[C@]4(C)[C@@]3(F)[C@@H](O)C[C@@]21C | > 20 µM (inactive)
C[C@@H]1CN([C@H](C)CO)C(=O)c2c(c3ccccc3n2C)-c2ccccc2CO[C@@H]1CN(C)C(=O)c1cc(Cl)cc(Cl)c1 | 8.14 µM
O=C(Cc1ccccc1)N1CC[C@@H]2[C@H]1c1cc(C#Cc3cccc(F)c3)ccc1N[C@@H]2CO | 6.03 µM
Cc1c(C(=O)c2cccc3ccccc23)c2cccc3c2n1[C@H](CN1CCOCC1)CO3 | 10.2 µM
C[C@H]1CN([C@@H](C)CO)C(=O)Cc2cc(NS(=O)(=O)c3cccs3)ccc2O[C@@H]1CN(C)Cc1ccc(Cl)c(Cl)c1 | 7.19 µM
CCS(=O)(=O)N1Cc2ccccc2CC1C(=O)Nc1nc2ccccc2s1 (configuration not stated) | 6.66 µM
CCCCCN1C=CC(=C2C(=O)c3ccccc3C2=O)C=C1 | 0.316 µM
Cc1ccc(CN2CC(C(=O)Nc3ncc(C)s3)CC2=O)cc1 (configuration not stated) | 4.2 µM
Fc1ccccc1CNCCC(Cc1ccccc1)c1ccc2c(c1)OCO2 (configuration not stated) | 3.4 µM
Cc1ccc2c(=O)c3ccccc3n(CCCN)c2c1C | 3.28 µM
CC(=O)O[C@H]1C[C@H](O[C@H]2[C@@H](O)C[C@H](O[C@H]3[C@@H](O)C[C@H](O[C@H]4CC[C@@]5(C)C(CCC6C5C[C@@H](O)[C@]5(C)[C@@H](C7=CC(=O)OC7)CC[C@]65O)C4)O[C@@H]3C)O[C@@H]2C)O[C@H](C)[C@H]1O[C@@H]1O[C@H](CO)[C@@H](O)[C@H](O)[C@H]1O (some centres not stated) | 1.01 µM
Oc1cc2c(cc1C(c1ccc(Br)cc1)N1CCCC1)OCO2 (configuration not stated) | 6.97 µM
C[C@@H]1CN([C@@H](C)CO)C(=O)c2ccccc2-c2ccccc2CO[C@@H]1CN(C)Cc1ccc(Oc2ccccc2)cc1 | > 20 µM (inactive)
COc1ccc(S(=O)(=O)N(C)C[C@H]2Oc3ccc(NC(=O)Nc4ccc(C(F)(F)F)cc4)cc3C(=O)N([C@H](C)CO)C[C@H]2C)cc1 | 8.38 µM
NC(c1csc(NC(=O)Nc2cccc(Cl)c2)n1)c1ccccc1Cl (configuration not stated) | 7.41 µM
